# Source: ChEMBL document CHEMBL5344468, “Novel Heterocyclic PAD4 Inhibitors for Treating Diseases” (ACS Med Chem Lett, 2024)
# Biological target: Protein-arginine deiminase type-4 (Homo sapiens, UniProt Q9UM07)
# Test: Inhibition of human PAD4 using BAEE as substrate preincubated with enzyme for 30 mins followed by substrate addition for 90 mins and later incubated with phenyl glyoxal for 30 mins by RFMS assay
# Sequence of Protein-arginine deiminase type-4 (Q9UM07 whole entry): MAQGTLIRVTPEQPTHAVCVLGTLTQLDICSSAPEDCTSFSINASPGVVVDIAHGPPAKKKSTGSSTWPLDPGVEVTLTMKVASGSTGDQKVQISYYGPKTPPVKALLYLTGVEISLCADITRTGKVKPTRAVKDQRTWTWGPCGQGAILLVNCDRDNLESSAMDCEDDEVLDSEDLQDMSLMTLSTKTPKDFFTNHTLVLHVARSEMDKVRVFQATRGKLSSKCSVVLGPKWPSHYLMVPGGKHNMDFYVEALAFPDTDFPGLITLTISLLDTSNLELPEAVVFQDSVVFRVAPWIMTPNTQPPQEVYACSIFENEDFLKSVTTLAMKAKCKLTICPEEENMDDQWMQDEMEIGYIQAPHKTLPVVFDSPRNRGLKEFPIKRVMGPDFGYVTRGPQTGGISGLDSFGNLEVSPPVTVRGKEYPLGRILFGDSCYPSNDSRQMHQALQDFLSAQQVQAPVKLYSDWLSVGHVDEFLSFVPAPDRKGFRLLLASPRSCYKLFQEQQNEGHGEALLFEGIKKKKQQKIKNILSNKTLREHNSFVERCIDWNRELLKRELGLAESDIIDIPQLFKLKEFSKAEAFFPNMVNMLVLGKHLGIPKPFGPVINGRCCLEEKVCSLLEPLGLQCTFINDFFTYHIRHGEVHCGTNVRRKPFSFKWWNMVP
row,SMILES,IC50
1,Cn1c(-c2cc3cccc(OCCc4ccn[nH]4)c3n2CC2CC2)nc2cc3c(nc21)CCN(C[C@H](N)CF)C3=O,≤ 10 nM
2,Cn1c(-c2cc3cccc(OCCc4cnco4)c3n2CC2CC2)nc2cc3c(nc21)CCN(C[C@H](N)CF)C3=O,≤ 10 nM
3,Cn1c(-c2cc3cccc(OCCc4cnn[nH]4)c3n2CC2CC2)nc2cc3c(nc21)CCN(C[C@H](N)CF)C3=O,≤ 10 nM
4,Cn1c(-c2cc3ccnc(OCCn4ccnc4)c3n2CC2CC2)nc2cc3c(nc21)CCN(C[C@H](N)CF)C3=O,≤ 10 nM

# Results, then the molecule that gave them:
row,IC50,SMILES
1,≤ 10 nM,Cn1c(-c2cc3cccc(OCCc4cccnc4)c3n2CC2CC2)nc2cc3c(nc21)CCN(C[C@H](N)CF)C3=O
2,≤ 10 nM,Cn1c(-c2cc3cccc(OCCc4ccon4)c3n2CC2CC2)nc2cc3c(nc21)CCN(C[C@H](N)CF)C3=O
